Experiments:
Staphylococcus aureus = test: Minimum inhibitory concentration, serial dilution method on nutrient agar; format: cell-based; details: 37° C., 18 hours, read-out: Minimum Inhibitory Concentrations
[1] = tested on: Staphylococcus aureus FDA 209P; test: as above; format: cell-based; details: FDA209P, 37° C., 18 hours, read-out: Minimum Inhibitory Concentrations
[2] = tested on: Staphylococcus aureus Terajima; test: as above; format: cell-based; details: 37° C., 18 hours, read-out: Minimum Inhibitory Concentrations
Sarcina lutea PCI 1001 = test: as above; format: cell-based; details: Micrococcus luteus, PCI1001, 18 h, read-out: Minimum Inhibitory Concentrations
Bacillus anthracis = test: microbe, parasite or virus in culture; format: cell-based; details: 18 h, read-out: Minimum Inhibitory Concentrations
[3] = tested on: Bacillus subtilis PCI 219; test: Minimum inhibitory concentration, serial dilution method on nutrient agar; format: cell-based; details: PCI219, 37° C., 18 hours, read-out: Minimum Inhibitory Concentrations
[4] = tested on: Bacillus subtilis NRRL B-558; test: as above; format: cell-based; details: NRRLB558, 37° C., 18 hours, read-out: Minimum Inhibitory Concentrations
[5] = tested on: Bacillus cereus ATCC 10702; test: as above; format: cell-based; details: Bacillus cereus, ATCC10702, 18 h, read-out: Minimum Inhibitory Concentrations
[6] = tested on: Corynebacterium bovis 1810; test: as above; format: cell-based; details: Corynebacterium bovis, 1810, 18 h, read-out: Minimum Inhibitory Concentrations
[7] = tested on: Mycobacterium smegmatis ATCC 607; test: as above; format: cell-based; details: Mycolicibacterium smegmatis, ATCC607, 37° C., 18 hours, read-out: Minimum Inhibitory Concentrations
[8] = tested on: Shigella dysenteriae JS 11910; test: as above; format: cell-based; details: JS11910, 18 h, read-out: Minimum Inhibitory Concentrations
Salmonella typhosa T-63 = test: as above; format: cell-based; details: Salmonella enterica, 18 h, read-out: Minimum Inhibitory Concentrations
[9] = tested on: Salmonella enteritidis 1891; test: as above; format: cell-based; details: Salmonella enterica, ENTERITIDIS, 18 h, read-out: Minimum Inhibitory Concentrations
Proteus vulgaris OX 19 = test: as above; format: cell-based; details: Proteus vulgaris, OX19, 18 h, read-out: Minimum Inhibitory Concentrations
[10] = tested on: Klebsiella pneumoniae PCT 602; test: as above; format: cell-based; details: Klebsiella pneumoniae, PCT602, 18 h, read-out: Minimum Inhibitory Concentrations
Escherichia coli NIHJ = test: as above; format: cell-based; details: Escherichia coli, 18 h, read-out: Minimum Inhibitory Concentrations
Escherichia coli K-12 = test: as above; format: cell-based; details: Escherichia coli, K12, 18 h, read-out: Minimum Inhibitory Concentrations
Escherichia coli K-12 R5 = test: as above; format: cell-based; details: K12R5, 18 h, read-out: Minimum Inhibitory Concentrations
[11] = tested on: Escherichia coli K-12 ML 1629; test: as above; format: cell-based; details: Escherichia coli, K12ML1629, 18 h, read-out: Minimum Inhibitory Concentrations
[12] = tested on: Escherichia coli K-12 ML 1410; test: as above; format: cell-based; details: Escherichia coli, K12ML1410, 18 h, read-out: Minimum Inhibitory Concentrations
[13] = tested on: Escherichia coli K-12 ML 1410 R81; test: as above; format: cell-based; details: 18 h, read-out: Minimum Inhibitory Concentrations
[14] = tested on: Escherichia coli LA290 R55; test: as above; format: cell-based; details: LA290R55, 18 h, read-out: Minimum Inhibitory Concentrations
[15] = tested on: Escherichia coli LA290 R56; test: as above; format: cell-based; details: LA290R56, 18 h, read-out: Minimum Inhibitory Concentrations
[16] = tested on: Escherichia coli LA290 R64; test: as above; format: cell-based; details: LA290R64, 18 h, read-out: Minimum Inhibitory Concentrations
Escherichia coli W677 = test: as above; format: cell-based; details: Escherichia coli, W677, 18 h, read-out: Minimum Inhibitory Concentrations
[17] = tested on: Escherichia coli JR66/W677; test: as above; format: cell-based; details: Escherichia coli, JR66/W677, 18 h, read-out: Minimum Inhibitory Concentrations
[18] = tested on: Escherichia coli K-12 ML 1630; test: as above; format: cell-based; details: K12ML1630, 37° C., 18 hours, read-out: Minimum Inhibitory Concentrations
Protocol: (§1) The minimum inhibitory concentrations (mcg./ml.) of 1N-(DL-isoseryl)-6'N-methyl-3',4'-dideoxykanamycin B (abbreviated as DL-IS-MDKB); 1N-(L-isoseryl)-6'N-methyl-3',4'-dideoxykanamycin B (abbreviated as L-IS-MDKB); 1N-(L-4-amino-[…])-6'N-methyl-3',4'-dideoxykanamycin B (abbreviated as AHB-MDKB); and 1N-(L-5-amino-2-hydroxyvaleryl)-6'N-methyl-3',4'-dideoxykanamycin B (abbreviated as AHV-MDBK) against various organisms were determined according to serial dilution method using nutrient agar medium at 37° C., the readings being made after 18 hours incubation. For the comparison purpose, the minimum inhibitory concentrations (mcg./ml.) of 1 N-(L-4-amino-2-hydroxybutyryl)-kanamycin A (abbreviated as AHB-KMA) and 1N-([…])-kanamycin B (abbreviated as AHB-KMB) which are known from U.S. Pat. No. 3,781,268 were also determined by the same manner as stated above.

[19] = tested on: Klebsiella pneumoniae 22 No. 3038; test: as above; format: cell-based; details: 37° C., 18 hours, read-out: Minimum Inhibitory Concentrations
Protocol: as §1

[20] = tested on: Pseudomonas aeruginosa A3; test: as above; format: cell-based; details: 37° C., 18 hours, read-out: Minimum Inhibitory Concentrations
Protocol: as §1

[21] = tested on: Shigella flexneri 4b JS 11811; test: as above; format: cell-based; details: 4BJS11811, 37° C., 18 hours, read-out: Minimum Inhibitory Concentrations
Protocol: as §1

Shigella sonnei JS 11746 = test: as above; format: cell-based; details: JS11746, 37° C., 18 hours, read-out: Minimum Inhibitory Concentrations
Protocol: as §1

[22] = tested on: Pseudomonas aeruginosa No. 12; test: as above; format: cell-based; details: Pseudomonas aeruginosa, NO.12, 18 h, read-out: Minimum Inhibitory Concentrations
[23] = tested on: Pseudomonas aeruginosa TI-13; test: as above; format: cell-based; details: TI13; Pseudomonas aeruginosa TI-13; 37° C., 18 hours; read-out: Minimum Inhibitory Concentrations
[24] = tested on: Pseudomonas aeruginosa GN315; test: as above; format: cell-based; details: Pseudomonas aeruginosa GN315; 37° C., 18 hours; read-out: Minimum Inhibitory Concentrations
[25] = tested on: Pseudomonas aeruginosa 99; test: as above; format: cell-based; details: 37° C., 18 hours, read-out: Minimum Inhibitory Concentrations
[26] = tested on: kanamycin-resistant bacteria; details: prior art statement; cited from earlier work

In the case of `CNC[C@@H]1CC[C@@H](N)[C@@H](O[C@H]2[C@H](O)[C@@H](O[C@H]3O[C@H](CO)[C@@H](O)[C@H](N)[C@H]3O)[C@H](NC(=O)C(O)CN)C[C@@H]2N)O1` (mixture of isomers) [DL-IS-MDKB, 1N-(DL-isoseryl)-6'N-methyl-3',4'-dideoxykanamycin B], the MIC (Staphylococcus aureus) is reported as under 0.2 µg/mL, the MIC [1] is reported as 0.78 µg/mL and the MIC [2] is reported as under 0.2 µg/mL. For the same compound, the MIC (Sarcina lutea PCI 1001) was 6.25 µg/mL, the MIC (Bacillus anthracis) was under 0.2 µg/mL and the MIC [3] was under 0.2 µg/mL. For the same compound, the MIC [4] was under 0.2 µg/mL, the MIC [5] was 3.13 µg/mL and the MIC [6] was 3.13 µg/mL. For the same compound, the MIC [7] was 0.39 µg/mL, the MIC [8] was 6.25 µg/mL and the MIC (Salmonella typhosa T-63) was 1.56 µg/mL. The MIC [9] was 3.13 µg/mL, the MIC (Proteus vulgaris OX 19) was 1.56 µg/mL and the MIC [10] was 1.56 µg/mL. The MIC (Escherichia coli NIHJ) was 1.56 µg/mL, the MIC (Escherichia coli K-12) was 1.56 µg/mL and the MIC (Escherichia coli K-12 R5) was 3.13 µg/mL. It also gave an MIC [11] of 1.56 µg/mL, an MIC [12] of 3.13 µg/mL and an MIC [13] of 3.13 µg/mL. It also gave an MIC [14] of 3.13 µg/mL, an MIC [15] of 0.78 µg/mL and an MIC [16] of 0.78 µg/mL. It also gave an MIC (Escherichia coli W677) of 1.56 µg/mL, an MIC [17] of 3.13 µg/mL and an MIC [18] of 3.13 µg/mL. The MIC [19] was 3.13 µg/mL, the MIC [20] was 3.13 µg/mL and the MIC [21] was 3.13 µg/mL. For the same compound, the MIC (Shigella sonnei JS 11746) was 3.13 µg/mL, the MIC [22] was 6.25 µg/mL and the MIC [23] was 12.5 µg/mL. For the same compound, the MIC [24] was 12.5 µg/mL and the MIC [25] was 25 µg/mL.
In the case of `CNC[C@@H]1CC[C@@H](N)[C@@H](O[C@H]2[C@H](O)[C@@H](O[C@H]3O[C@H](CO)[C@@H](O)[C@H](N)[C@H]3O)[C@H](N)C[C@@H]2N)O1` [6'N-methyl-3',4'-dideoxykanamycin B, 6'N-Methyl-3',4'-dideoxykanamycin B], the “activity against kanamycin-resistant bacteria” value [26] is given as “active against a large number of kanamycin-resistant bacteria”.
For `NC[C@@H]1CC[C@@H](N)[C@@H](O[C@H]2[C@H](O)[C@@H](O[C@H]3O[C@H](CO)[C@@H](O)[C@H](N)[C@H]3O)[C@H](N)C[C@@H]2N)O1` [3',4'-dideoxykanamycin B, 3',4'-Dideoxykanamycin B], the “activity against kanamycin-resistant bacteria” value [26] is listed as “active against a large number of kanamycin-resistant bacteria”.
